Tests used:
[1] = system: normal prostate stromal cells (PrSCs); conditions: result in words; cited from earlier work
[2] = system: normal prostate epithelial cells (PrECs); conditions: result in words; cited from earlier work
[3] = target: T1, human quinone reductase 2 (QR2) (Homo sapiens, UniProt P16083); test: QR2 steady-state kinetic assay; assay type: biochemical; conditions: for inhibitory activity against QR2: result in words
T1 sequence (P16083 1-231): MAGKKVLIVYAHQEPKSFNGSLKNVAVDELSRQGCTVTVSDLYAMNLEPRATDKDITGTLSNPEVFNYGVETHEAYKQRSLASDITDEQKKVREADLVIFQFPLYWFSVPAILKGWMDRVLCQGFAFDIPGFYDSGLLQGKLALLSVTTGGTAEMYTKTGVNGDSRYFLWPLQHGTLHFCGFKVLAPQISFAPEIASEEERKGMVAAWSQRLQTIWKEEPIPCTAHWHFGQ

SMILES: Oc1ccc(/C=C/c2cc(O)cc(O)c2)cc1 [resveratrol]
- effect on cellular proliferation of PrSCs [1]: dose-dependent inhibition of cellular proliferation
- effect on PrEC growth [2]: no effect

SMILES: COC(=O)C1CC2(O)C(=O)Nc3c(Cl)cc(Cl)c(c32)N1 (centres unmarked) [Compound 33, Methyl 6,8-Dichloro-2a-hydroxy-2-oxo-1,2,2a,3,4,5-hexahydropyrrolo[4,3,2-d,e]quinoline-4-carboxylate]
- inhibitory activity against QR2 [3]: none showed inhibitory activity

SMILES: COC(=O)c1cc(C(N)=O)nc2cc(N)c(N)c(Cl)c12 [Compound 23, Methyl 6,7-Diamino-2-carbamoyl-5-chloroquinoline-4-carboxylate]
- increase in QR2 inhibitory activity ([3]; relative to 12): 10 fold

SMILES: COC(=O)C1CC(O)(C(=O)OC)c2c(N)c(Cl)cc(Cl)c2N1 (centres unmarked) [Compound 26, Dimethyl 5-Amino-6,8-dichloro-4-hydroxy-1,2,3,4-tetrahydroquinoline-2,4-dicarboxylate]
- inhibitory activity against QR2 [3]: none showed inhibitory activity

Source: paper PMC3262027 (Journal of Medicinal Chemistry, 2011)
